Data published in ChEMBL document CHEMBL1949598, “Synthesis, cytostatic activity and ADME properties of C-5 substituted and N-acyclic pyrimidine derivatives” (Bioorg Med Chem Lett, 2012).
Calls of active or inactive are those of the source. No cut-off for these calls is given here.

Legend:
NCI-H460 [1] = experiment: Cytotoxicity against human H460 cells after 72 hrs by MTT assay; assay type: functional, cell-based; settings: NCI-H460, 72 h
HCT-116 [2] = experiment: cells; settings: Homo sapiens, HCT-116, 72 h
MCF7 [3] = experiment: Cytotoxicity against human MCF7 cells up to 100 uM after 72 hrs by MTT assay; assay type: functional, cell-based
HCT-116 [4] = experiment: Cytotoxicity against human HCT116 cells up to 100 uM after 72 hrs by MTT assay; assay type: functional, cell-based
NCI-H460 [5] = experiment: Cytotoxicity against human H460 cells up to 100 uM after 72 hrs by MTT assay; assay type: functional, cell-based
MCF7 [6] = experiment: cells; settings: Homo sapiens, MCF7, 72 h
Description: Cytotoxicity against human MCF7 cells after 72 hrs by MTT assay

[7] = Metabolic stability in human liver microsomes assessed as compound remaining at 1 uM after 60 mins by LC/MS/MS analysis; assay type: ADME, Microsome; settings: read-out: Stability
MDR1 (P-gp), human [8] = experiment: Efflux ratio of apparent permeability from apical to basolateral over basolateral to apical side of MDCK2 cells expressing human MDR1 gene; assay type: ADME, cell-based, Canis lupus familiaris, MDCK-II; settings: dog, MDCK-MDR1
[9] = Metabolic stability in mouse liver microsomes assessed as compound remaining at 1 uM after 60 mins by LC/MS/MS analysis; assay type: ADME, Microsome; settings: read-out: Stability
[10] = Metabolic stability in mouse plasma assessed as compound remaining at 5 uM after 24 hrs by LC/MS/MS analysis; assay type: ADME, cell-free; settings: read-out: Stability
[11] = Half life in human plasma at 5 uM; assay type: ADME
MDR1 (P-gp), human [12] = experiment: Apparent permeability from apical to basolateral side in MDCK2 cells expressing human MDR1 at 10 uM after 60 mins; assay type: ADME, cell-based, Canis lupus familiaris, MDCK-II; settings: dog, MDCK-MDR1
[13] = Half life in rat plasma at 5 uM; assay type: ADME
[14] = Half life in mouse plasma at 5 uM; assay type: ADME
[15] = Metabolic stability in human plasma assessed as compound remaining at 5 uM after 24 hrs by LC/MS/MS analysis; assay type: ADME, cell-free; settings: read-out: Stability
[16] = Half life in rat liver microsomes at 1 uM
[17] = Metabolic stability in rat liver microsomes assessed as compound remaining at 1 uM after 60 mins by LC/MS/MS analysis; assay type: ADME, Microsome; settings: read-out: Stability
[18] = Metabolic stability in rat plasma assessed as compound remaining at 5 uM after 24 hrs by LC/MS/MS analysis; assay type: ADME, cell-free; settings: read-out: Stability
[19] = Half life in human liver microsomes at 1 uM
[20] = (§1) Efflux ratio of apparent permeability from apical to basolateral side over basolateral to apical side in MDCK2 cells expressing human MDR1 in presence of P-gp inhibitor elacridar; assay type: ADME, cell-based, Canis lupus familiaris, MDCK-II; settings: dog, mdck-ii
MDR1 (P-gp), human [21] = experiment: Apparent permeability from basolateral to apical side in MDCK2 cells expressing human MDR1 at 10 uM after 60 mins; assay type: ADME, cell-based, Canis lupus familiaris, MDCK-II; settings: dog, MDCK-MDR1
[22] = Half life in mouse liver microsomes at 1 uM
HCT-116 [23] = experiment: Cell cycle arrest in human HCT116 cells assessed as accumulation of cells at G2/M phase at 1 uM after 48 hrs using propidium iodide staining by FACS analysis (reference value: 26.6%); assay type: functional
HCT-116 [24] = experiment: Cell cycle arrest in human HCT116 cells assessed as accumulation of cells at G2/M phase at 5 uM after 48 hrs using propidium iodide staining by FACS analysis (reference value: 26.6%); assay type: functional
HCT-116 [25] = experiment: Cell cycle arrest in human HCT116 cells assessed as accumulation of cells at S phase at 1 uM after 48 hrs using propidium iodide staining by FACS analysis (reference value: 31%); assay type: functional
HCT-116 [26] = experiment: Cell cycle arrest in human HCT116 cells assessed as accumulation of cells at G2/M phase at 1 uM after 24 hrs using propidium iodide staining by FACS analysis (reference value: 17.4%); assay type: functional
HCT-116 [27] = experiment: Cell cycle arrest in human HCT116 cells assessed as accumulation of cells at G1 phase at 5 uM after 48 hrs using propidium iodide staining by FACS analysis (reference value: 42.3%); assay type: functional
HCT-116 [28] = experiment: Cell cycle arrest in human HCT116 cells assessed as accumulation of cells at G2/M phase at 5 uM after 24 hrs using propidium iodide staining by FACS analysis (reference value: 17.4%); assay type: functional
HCT-116 [29] = experiment: Cell cycle arrest in human HCT116 cells assessed as accumulation of cells at sub-G1 phase at 1 uM after 24 hrs using propidium iodide staining by FACS analysis (reference value: 1.8%); assay type: functional
HCT-116 [30] = experiment: Cell cycle arrest in human HCT116 cells assessed as accumulation of cells at sub-G1 phase at 5 uM after 24 hrs using propidium iodide staining by FACS analysis (reference value: 1.8%); assay type: functional
HCT-116 [31] = experiment: Cell cycle arrest in human HCT116 cells assessed as accumulation of cells at G1 phase at 1 uM after 48 hrs using propidium iodide staining by FACS analysis (reference value: 42.3%); assay type: functional
HCT-116 [32] = experiment: Cell cycle arrest in human HCT116 cells assessed as accumulation of cells at G1 phase at 1 uM after 24 hrs using propidium iodide staining by FACS analysis (reference value: 32.5%); assay type: functional
HCT-116 [33] = experiment: Cell cycle arrest in human HCT116 cells assessed as accumulation of cells at S phase at 5 uM after 24 hrs using propidium iodide staining by FACS analysis (reference value: 50%); assay type: functional
HCT-116 [34] = experiment: Cell cycle arrest in human HCT116 cells assessed as accumulation of cells at sub-G1 phase at 1 uM after 48 hrs using propidium iodide staining by FACS analysis (reference value: 1.5%); assay type: functional
HCT-116 [35] = experiment: Cell cycle arrest in human HCT116 cells assessed as accumulation of cells at S phase at 1 uM after 24 hrs using propidium iodide staining by FACS analysis (reference value: 50%); assay type: functional
HCT-116 [36] = experiment: Cell cycle arrest in human HCT116 cells assessed as accumulation of cells at S phase at 5 uM after 48 hrs using propidium iodide staining by FACS analysis (reference value: 31%); assay type: functional
HCT-116 [37] = experiment: Cell cycle arrest in human HCT116 cells assessed as accumulation of cells at G1 phase at 5 uM after 24 hrs using propidium iodide staining by FACS analysis (reference value: 32.5%); assay type: functional
HCT-116 [38] = experiment: Cell cycle arrest in human HCT116 cells assessed as accumulation of cells at sub-G1 phase at 5 uM after 48 hrs using propidium iodide staining by FACS analysis (reference value: 1.5%); assay type: functional
MDR1 (P-gp), human [39] = experiment: as §1; assay type: ADME, cell-based, Canis lupus familiaris, MDCK-II; settings: dog, MDCK-MDR1, with elacridar (P-gp inhibitor; concentration not stated)

For COCOCCc1cnc(OC)nc1OC, the IC50 (NCI-H460 [1]) was > 100 µM, the IC50 (HCT-116 [2]) was 75 µM and the “growth inhibition (GI)” value (MCF7 [3]) was “Active”. For the same compound, the “growth inhibition (GI)” value (HCT-116 [4]) was “Active”, the “growth inhibition (GI)” value (NCI-H460 [5]) was “Active” and the IC50 (MCF7 [6]) was > 100 µM.
In the case of CC(=O)OCCc1c[nH]c(=O)[nH]c1=O, the “growth inhibition (GI)” value (MCF7 [3]) is reported as “inactive”, the “growth inhibition (GI)” value (HCT-116 [4]) is reported as “inactive” and the “growth inhibition (GI)” value (NCI-H460 [5]) is reported as “inactive”.
In the case of COCn1cc(CCOC(C)=O)c(=O)[nH]c1=O, the “growth inhibition (GI)” value (MCF7 [3]) is reported as “inactive”, the “growth inhibition (GI)” value (HCT-116 [4]) is reported as “inactive” and the “growth inhibition (GI)” value (NCI-H460 [5]) is reported as “inactive”.
Cc1nc(Cl)nc(Cl)c1CCCl showed a remaining at 1 h, 1 µM [7] of 76%, an efflux ratio (MDR1 (P-gp), human [8]) of 0.6 and a remaining at 1 h, 1 µM [9] of 41%. For the same compound, the remaining at 24 h, 5 µM [10] was 22%, the half-life at 5 µM [11] was 10 h and the Papp A→B at 1 h, 10 µM (MDR1 (P-gp), human [12]) was 35.8 ×10⁻⁶ cm/s. It also gave a half-life at 5 µM [13] of 3.07 h, a half-life at 5 µM [14] of 7.97 h and a remaining at 24 h, 5 µM [15] of 20%. The half-life at 1 µM [16] was 2.23 h, the remaining at 1 h, 1 µM [17] was 74% and the remaining at 24 h, 5 µM [18] was 3%. It also gave a half-life at 1 µM [19] of 2.42 h, a Ratio [20] of 1.4 and a Papp B→A at 1 h, 10 µM (MDR1 (P-gp), human [21]) of 20.9 ×10⁻⁶ cm/s. The half-life at 1 µM [22] was 0.767 h.
In the case of COCn1cc(CCO)c(=O)n(COC)c1=O, the “growth inhibition (GI)” value (MCF7 [3]) is reported as “inactive”, the “growth inhibition (GI)” value (HCT-116 [4]) is reported as “inactive” and the “growth inhibition (GI)” value (NCI-H460 [5]) is reported as “inactive”.
For COCn1cc(CCO)c(OC)nc1=O, the “growth inhibition (GI)” value (MCF7 [3]) was “inactive”, the “growth inhibition (GI)” value (HCT-116 [4]) was “inactive” and the “growth inhibition (GI)” value (NCI-H460 [5]) was “inactive”.
In the case of COCOCCc1cn(COC)c(=O)nc1OC, the “growth inhibition (GI)” value (MCF7 [3]) is reported as “inactive”, the “growth inhibition (GI)” value (HCT-116 [4]) is reported as “inactive” and the “growth inhibition (GI)” value (NCI-H460 [5]) is reported as “inactive”.
In the case of Clc1ncc2c(n1)OCC2, the IC50 (NCI-H460 [1]) is reported as 22 µM, the IC50 (HCT-116 [2]) is reported as 13 µM and the “growth inhibition (GI)” value (MCF7 [3]) is reported as “Active”. The “growth inhibition (GI)” value (HCT-116 [4]) was “Active”, the “growth inhibition (GI)” value (NCI-H460 [5]) was “Active” and the IC50 (MCF7 [6]) was 45 µM.
With ClCCc1cnc(Cl)nc1Cl the Activity (HCT-116 [23]) was 26.7%, the Activity (HCT-116 [24]) was 60.7% and the remaining at 1 h, 1 µM [7] was 65%. The IC50 (NCI-H460 [1]) was 3 µM, the IC50 (HCT-116 [2]) was 0.8 µM and the efflux ratio (MDR1 (P-gp), human [8]) was 1.2. For the same compound, the remaining at 1 h, 1 µM [9] was 33%, the Activity (HCT-116 [25]) was 31.5% and the remaining at 24 h, 5 µM [10] was 0%. The Activity (HCT-116 [26]) was 17.2%, the half-life at 5 µM [11] was 2.55 h and the Activity (HCT-116 [27]) was 24.6%. For the same compound, the Papp A→B at 1 h, 10 µM (MDR1 (P-gp), human [12]) was 20.8 ×10⁻⁶ cm/s, the Activity (HCT-116 [28]) was 77.6% and the Activity (HCT-116 [29]) was 2.5%. The Activity (HCT-116 [30]) was 8.1%, the half-life at 5 µM [13] was 0.4 h and the half-life at 5 µM [14] was 1.52 h. For the same compound, the Activity (HCT-116 [31]) was 41.7%, the Activity (HCT-116 [32]) was 33.5% and the Activity (HCT-116 [33]) was 14.6%. For the same compound, the Activity (HCT-116 [34]) was 1.7%, the Activity (HCT-116 [35]) was 48.8% and the remaining at 24 h, 5 µM [15] was 0%. For the same compound, the half-life at 1 µM [16] was 2.23 h, the Activity (HCT-116 [36]) was 14.8% and the Activity (HCT-116 [37]) was 7.8%. The remaining at 1 h, 1 µM [17] was 73%, the remaining at 24 h, 5 µM [18] was 0% and the Activity (HCT-116 [38]) was 8.5%. It also gave a half-life at 1 µM [19] of 1.73 h, an efflux ratio (MDR1 (P-gp), human [39]) of 1.2 and a Papp B→A at 1 h, 10 µM (MDR1 (P-gp), human [21]) of 25.8 ×10⁻⁶ cm/s. The half-life at 1 µM [22] was 0.567 h and the IC50 (MCF7 [6]) was 10 µM.
In the case of OCCc1cnc(Cl)nc1Cl, the “growth inhibition (GI)” value (MCF7 [3]) is reported as “inactive”, the “growth inhibition (GI)” value (HCT-116 [4]) is reported as “inactive” and the “growth inhibition (GI)” value (NCI-H460 [5]) is reported as “inactive”.
For COCn1c(=O)[nH]cc(CCOC(C)=O)c1=O, the “growth inhibition (GI)” value (MCF7 [3]) was “inactive”, the “growth inhibition (GI)” value (HCT-116 [4]) was “inactive” and the “growth inhibition (GI)” value (NCI-H460 [5]) was “inactive”.
